From ChEMBL document CHEMBL1955760, “Pyrrolovesamicols--synthesis, structure and VAChT binding of two 4-fluorobenzoyl regioisomers” (Bioorg Med Chem Lett, 2012) come the findings set out here.

Assay [1] deals with T1, Vesicular acetylcholine transporter (Homo sapiens, UniProt Q16572).
T1 sequence (Q16572 whole entry): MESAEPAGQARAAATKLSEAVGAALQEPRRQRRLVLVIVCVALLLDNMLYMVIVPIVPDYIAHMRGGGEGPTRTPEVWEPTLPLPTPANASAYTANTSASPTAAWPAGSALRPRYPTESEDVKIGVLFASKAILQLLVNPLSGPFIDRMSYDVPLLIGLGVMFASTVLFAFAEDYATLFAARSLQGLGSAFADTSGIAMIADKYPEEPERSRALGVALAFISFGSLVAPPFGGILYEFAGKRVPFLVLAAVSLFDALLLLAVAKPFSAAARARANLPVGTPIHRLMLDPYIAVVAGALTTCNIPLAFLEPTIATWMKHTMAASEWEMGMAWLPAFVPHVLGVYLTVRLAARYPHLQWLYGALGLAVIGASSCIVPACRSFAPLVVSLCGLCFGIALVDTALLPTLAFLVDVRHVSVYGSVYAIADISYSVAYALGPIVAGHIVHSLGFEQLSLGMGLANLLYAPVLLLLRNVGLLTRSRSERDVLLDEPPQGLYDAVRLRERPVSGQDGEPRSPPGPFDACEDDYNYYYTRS
Kind of assay: Binding affinity to VAchT.

For assay [2], the target named is T1, Vesicular acetylcholine transporter. Kind of assay: Binding affinity to VAchT transfected in rat PC12 cells. The assay is classed as cell-based, PC-12.
In assay [3] the target is T2, Vesicular acetylcholine transporter (Rattus norvegicus, UniProt Q62666).
T2 sequence (Q62666 whole entry): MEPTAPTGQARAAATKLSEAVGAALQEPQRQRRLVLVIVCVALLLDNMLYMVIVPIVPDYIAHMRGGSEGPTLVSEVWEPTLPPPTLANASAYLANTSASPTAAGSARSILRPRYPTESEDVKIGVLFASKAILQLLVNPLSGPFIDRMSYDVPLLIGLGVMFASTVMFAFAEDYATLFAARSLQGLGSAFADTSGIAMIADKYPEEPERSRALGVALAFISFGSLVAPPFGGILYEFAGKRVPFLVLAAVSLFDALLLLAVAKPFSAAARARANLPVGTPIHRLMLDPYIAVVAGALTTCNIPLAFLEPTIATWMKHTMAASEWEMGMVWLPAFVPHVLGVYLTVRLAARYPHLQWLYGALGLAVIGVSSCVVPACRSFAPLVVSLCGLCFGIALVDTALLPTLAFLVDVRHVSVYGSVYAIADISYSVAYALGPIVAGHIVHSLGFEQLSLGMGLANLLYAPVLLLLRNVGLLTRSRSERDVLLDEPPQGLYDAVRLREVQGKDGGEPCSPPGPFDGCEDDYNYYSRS
Kind of assay: Displacement of (-)-[3H]vesamicol from rat VAchT transfected in rat PC12 cells after 2 hrs by scintillation counting. The assay is classed as cell-based, PC-12.

What is called Ki is a dissociation constant, usually derived from enzyme kinetics or from competition with a known ligand. Low readings indicate tighter binding, high ones weaker binding. As to `CCN(C(=O)C[18F])c1cccc2c1C[C@@H](N1CCC(c3ccccc3)CC1)[C@H](O)C2`, affinity in assay [1] was put at a Ki of 0.32 nM.

With `O=C(c1ccc([18F])cc1)N1CCOC2C[C@@H](O)[C@H](N3CCC(c4ccccc4)CC3)CC21` (mixture of isomers), affinity in assay [2] was put at a Ki of 27.5 nM.

As for `O=C(c1ccc(F)cc1)c1cc2c([nH]1)C[C@@H](N1CCC(c3ccccc3)CC1)[C@H](O)C2` (racemic), the affinity in assay [3] corresponds to a Ki of 312 nM.

`O=C(c1ccc(F)cc1)c1cc2c([nH]1)C[C@@H](O)[C@H](N1CCC(c3ccccc3)CC1)C2` (racemic): the affinity in assay [3], expressed as Ki, was 7320 nM.

In turn, `O[C@@H]1CCN(Cc2ccc([18F])cc2)C[C@H]1N1CCC(c2ccccc2)CC1` (racemic) yielded a Ki in assay [1] of 0.44 nM.
